According to patent US9408910B2, “Anticancer prodrug activated by radiation or ultraviolet treatment and use thereof” (priority 2011, dated 2016):
Numbered stars: 1 amine (or outer) side, 2 acyl side, 3 side chain; on linkers, the order of the positions; unused ones are H or OH. Square brackets hold non-standard residues; d marks the D form. Peptide text beside a SMILES is read from it. * marks the point of attachment. Doxorubicin(3'-N) = COc1cccc2c1C(=O)c1c(O)c3c(c(O)c1C2=O)C[C@@](O)(C(=O)CO)C[C@@H]3O[C@H]1C[C@H](N*)[C@H](O)[C@H](C)O1; PABC = O=C(OCc1ccc(N[*:1])cc1)[*:2]

Assays:
SCC 7 cells = test: Cytotoxicity evaluation by in vitro MTT assay (Example 4); type: cell-based; details: no caspase-3 expression
Procedure: Cytotoxicity was evaluated by in vitro MTT assay.
In detail, SCC 7 cells were radiated at a dose of 1 Gy, 5 Gy, or 10 Gy, and then the medium was removed after 2 h, 6 h, 12 h, 24 h, or 48 h. 20 μl of MTT solution per 100 μl of medium was treated, and then reacted at 30° C. for 1 hour in the dark. Thereafter, the cells were washed with PBS three times, and the medium was removed. 100 μl of DMSO was added to dissolve MTT formazan, followed by ELASA (test wavelength: 570 nm).
That is, total 6 experiments were carried out, and the results are shown FIGS. 9a to 9f. a) Radiation of cells at a radiation dose of 1 Gy, 5 Gy, 10 Gy, 15 Gy, 20 Gy, followed by MTT assay (radiation MTT assay), b) Treatment of cells with doxorubicin at a dose of 0.1 μM, 0.5 μM, 1 μM, and 5 μM, followed by MTT assay (Doxorubicin MIT assay), c) Treatment of cells with anticancer prodrug (KGDEVD-DOX) prepared in Example 1, followed by MTT assay (KGDEVD-DOX MTT assay), d) Treatment of cells with caspase-3-treated anticancer prodrug (KGDEVD-DOX) prepared in Example 1, followed by MIT assay (Cleaved Dox by Caspase-3 MIT assay), e) Treatment of cells with doxorubicin and radiation, followed by MIT assay (Doxorubicin+RT MTT assay), f) Treatment of cells with […], followed by MTT assay (KGDEVD-DOX+RT MTT assay). […]

[1] = test system: tumor mouse models transplanted with SCC 7 cell line; details: 5 Gy radiation, then 10 mg/kg i.v. every day for 3 days; FIG. 18
Procedure: That is, tumor mouse models transplanted with SCC 7 cell line were radiated using a gamma knife (5 Gy). 24 hrs after radiation, the caspase-3 sensitive anticancer prodrug was administered into the animals via intravenous injection (10 mg/kg). At this time, the same dose of the drug was administered into the animals every day for 3 days, and then tumor growth and survival rate were measured every day until the experiments were terminated after radiation. The organs were removed from each experimental group after completion of the experiment, and cytotoxicity of the drug was examined.

[2] = test system: tumor mouse models transplanted with SCC 7 cell line; test: Anti-tumor therapeutic effect of the anticancer prodrug with radiation (Example 3); type: in vivo; details: administered together with radiation (5 Gy, gamma knife); prodrug 3 mg/kg i.v. 24 hr after radiation and again after 2 days; FIG. 8

Row | Compound | cytotoxicity when caspase-3 was not expressed (SCC 7 cells) | side effects (cytotoxicity of the drug in removed organs) [1] | tumor size (tumor growth) [2]
1 | COc1cccc2c1C(=O)c1c(O)c3c(c(O)c1C2=O)C[C@@](O)(C(=O)CO)C[C@@H]3O[C@H]1C[C@H](NC(=O)OCc2ccc(NC(=O)[C@H](CC(=O)O)NC(=O)[C@@H](NC(=O)[C@H](CCC(=O)O)NC(=O)[C@H](CC(=O)O)NC(=O)CNC(=O)[C@H](CCCCN)NC(C)=O)C(C)C)cc2)[C@H](O)[C@H](C)O1 [KGDEVD-DOX, Ac-Lys-Gly-Asp-Glu-Val-Asp-PABC-DOX] (Ac-KGDEVD[PABC]-{Doxorubicin(3'-N)}) | no cytotoxicity | reduced side effects | 
2 | COc1cccc2c1C(=O)c1c(O)c3c(c(O)c1C2=O)C[C@@](O)(C(=O)CO)C[C@@H]3O[C@H]1C[C@H](N)[C@H](O)[C@H](C)O1 [doxorubicin] |  |  | tumor was reduced in size
